# Assay results: US20240199558A1, “2,4,6-TRISUBSTITUTED 1,3,5-TRIAZINES AS MODULATORS OF CX3CR1” (ASTRAZENECA AB, priority 2022, published 2024)
# Molecular target: CX3CR1 (Homo sapiens (Human), UniProt P49238)
# Test: hCX3CR1 [3H]-AZD8797 competitive binding assay (filter)
# Conditions: CHO-hCX3CR1 membranes, 2 nM [3H]-AZD8797
# Summary of the method: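 CHO-hCX3CR1 membranes (9 μg/well) were incubated 2 h at room temperature with 2 nM [3H]-AZD8797 and varying competitor concentrations. Buffer: 25 mM HEPES pH 7.4, 10 mM MgCl2, 1 mM CaCl2, 0.5% BSA, 1% DMSO. Bound ligand was collected by vacuum filtration, washed in ice-cold buffer with 500 mM NaCl, and counted by scintillation.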
# Chain of CX3CR1 (P49238 whole entry): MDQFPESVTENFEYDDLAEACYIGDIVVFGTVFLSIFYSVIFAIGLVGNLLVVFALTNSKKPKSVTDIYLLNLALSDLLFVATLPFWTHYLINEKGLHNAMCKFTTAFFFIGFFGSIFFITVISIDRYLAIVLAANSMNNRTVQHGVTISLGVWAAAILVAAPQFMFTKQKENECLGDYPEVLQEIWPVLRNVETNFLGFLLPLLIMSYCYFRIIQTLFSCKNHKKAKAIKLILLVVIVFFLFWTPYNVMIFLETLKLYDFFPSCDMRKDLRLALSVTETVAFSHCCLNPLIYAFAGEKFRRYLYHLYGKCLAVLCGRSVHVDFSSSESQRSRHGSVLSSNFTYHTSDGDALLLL
row,IC50 [nM],Structure (SMILES)
1,30,"CC(C)C[C@H](CO)Nc1nc(C[C@@H](C)c2c(F)ccc(F)c2F)nc(NS(C)(=O)=O)n1 (single isomer, unassigned) [Example 42, N-(4-(((R)-1-Hydroxy-4-methylpentan-2-yl)amino)-6-((R*)-2-(2,3,6-trifluorophenyl)propyl)-1,3,5-triazin-2-yl)methanesulfonamide]"
2,78,"CC(C)C[C@H](CO)Nc1nc(C[C@@H](C)c2cc(F)ccc2F)nc(NS(C)(=O)=O)n1 (single isomer, unassigned) [Example 24, N-(4-((R*)-2-(2,5-Difluorophenyl)propyl)-6-(((R)-1-hydroxy-4-methylpentan-2-yl)amino)-1,3,5-triazin-2-yl)methanesulfonamide]"
3,309,"CC[C@@H](Cc1nc(N[C@@H](CO)CC(C)C)nc(NS(C)(=O)=O)n1)c1cccc(F)c1F (single isomer, unassigned) [Example 48, N-(4-((S*)-2-(2,3-Difluorophenyl)butyl)-6-(((R)-1-hydroxy-4-methylpentan-2-yl)amino)-1,3,5-triazin-2-yl)methanesulfonamide]"
4,1550,"Cc1ccc(F)c(C(C)Cc2nc(N[C@@H](CO)CC(C)C)nc(NS(C)(=O)=O)n2)n1 (stereo partly drawn) [Example 155, N-(4-(2-(3-Fluoro-6-methylpyridin-2-yl)propyl)-6-(((R)-1-hydroxy-4-methylpentan-2-yl)amino)-1,3,5-triazin-2-yl)methanesulfonamide]"
5,340,"CC(C)C[C@H](CO)Nc1nc(CC(C)c2cccc(Cl)c2)nc(NS(C)(=O)=O)n1 (stereo partly drawn) [Example 72, N-(4-(2-(3-Chlorophenyl)propyl)-6-(((R)-1-hydroxy-4-methylpentan-2-yl)amino)-1,3,5-triazin-2-yl)methanesulfonamide]"
6,283,"CC(C)C[C@H](CO)Nc1nc(CC(C)c2ccc(C#N)cc2)nc(NS(C)(=O)=O)n1 (single isomer, unassigned) [Example 165, N-(4-((R*)-2-(4-Cyanophenyl)propyl)-6-(((R)-1-hydroxy-4-methylpentan-2-yl)amino)-1,3,5-triazin-2-yl)methanesulfonamide]"
7,639,"Cc1ncc(C(C)Cc2nc(N[C@@H](CO)CC(C)C)nc(NS(C)(=O)=O)n2)cc1N (stereo partly drawn) [Example 131, N-(4-(2-(5-Amino-6-methylpyridin-3-yl)propyl)-6-(((R)-1-hydroxy-4-methylpentan-2-yl)amino)-1,3,5-triazin-2-yl)methanesulfonamide]"
8,469,"COc1cccc(C(C)Cc2nc(N[C@@H](CO)CC(C)C)nc(NS(C)(=O)=O)n2)c1O (stereo partly drawn) [Example 139, N-(4-(2-(2-Hydroxy-3-methoxyphenyl)propyl)-6-(((R)-1-hydroxy-4-methylpentan-2-yl)amino)-1,3,5-triazin-2-yl)methanesulfonamide]"
9,105,"CC(C)C[C@H](CO)Nc1nc(CC(C)c2cccc(F)c2)nc(NS(C)(=O)=O)n1 (stereo partly drawn) [Example 58, N-(4-(2-(3-Fluorophenyl)propyl)-6-(((R)-1-hydroxy-4-methylpentan-2-yl)amino)-1,3,5-triazin-2-yl)methanesulfonamide]"
10,22,"CC(C)C[C@H](CO)Nc1nc(C[C@@H](C)c2c(F)cccc2F)nc(NS(C)(=O)=O)n1 (single isomer, unassigned) [Example 78, N-(4-((R*)-2-(2,6-Difluorophenyl)propyl)-6-(((R)-1-hydroxy-4-methylpentan-2-yl)amino)-1,3,5-triazin-2-yl)methanesulfonamide]"
11,264,"CC(C)C[C@H](CO)Nc1nc(CC(C)c2ccc(CCO)nc2)nc(NS(C)(=O)=O)n1 (stereo partly drawn) [Example 132, N-(4-(((R)-1-Hydroxy-4-methylpentan-2-yl)amino)-6-(2-(6-(2-hydroxyethyl)pyridin-3-yl)propyl)-1,3,5-triazin-2-yl)methanesulfonamide]"
12,160,"CC(C)C[C@H](CO)Nc1nc(CC(C)c2ccc3c(c2)oc(=O)n3C)nc(NS(C)(=O)=O)n1 (stereo partly drawn) [Example 100, N-(4-(((R)-1-Hydroxy-4-methylpentan-2-yl)amino)-6-(2-(3-methyl-2-oxo-2,3-dihydrobenzo[d]oxazol-6-yl)propyl)-1,3,5-triazin-2-yl)methanesulfonamide]"
13,38,CC(C)C[C@H](CO)Nc1nc(CC(C)c2cc(O)c3c(c2)CCCC3)nc(NS(C)(=O)=O)n1 (stereo partly drawn) [Example 104]
14,222,"CC(C)C[C@H](CO)Nc1nc(C[C@@H](C)c2ccc(F)c(Cl)c2)nc(NS(C)(=O)=O)n1 (single isomer, unassigned) [Example 66, N-(4-((R*)-2-(3-Chloro-4-fluorophenyl)propyl)-6-(((R)-1-hydroxy-4-methylpentan-2-yl)amino)-1,3,5-triazin-2-yl)methanesulfonamide]"
15,257,"CC(C)C[C@H](CO)Nc1nc(C[C@@H](C)c2cc(F)c(F)c(F)c2)nc(NS(C)(=O)=O)n1 (single isomer, unassigned) [Example 22, N-(4-(((R)-1-Hydroxy-4-methylpentan-2-yl)amino)-6-((R*)-2-(3,4,5-trifluorophenyl)propyl)-1,3,5-triazin-2-yl)methanesulfonamide]"
16,102,"CC(C)C[C@H](CO)Nc1nc(CC(C)c2ccc3[nH]ccc3c2)nc(NS(C)(=O)=O)n1 (stereo partly drawn) [Example 60, N-(4-(2-(1H-Indol-5-yl)propyl)-6-(((R)-1-hydroxy-4-methylpentan-2-yl)amino)-1,3,5-triazin-2-yl)methanesulfonamide]"
17,110,"CC(C)C[C@H](CO)Nc1nc(CC(C)c2ccc(F)cc2O)nc(NS(C)(=O)=O)n1 (stereo partly drawn) [Example 142, N-(4-(2-(4-Fluoro-2-hydroxyphenyl)propyl)-6-(((R)-1-hydroxy-4-methylpentan-2-yl)amino)-1,3,5-triazin-2-yl)methanesulfonamide]"
18,149,COc1ccc(C(C)Cc2nc(N[C@@H](CO)CC(C)C)nc(NS(C)(=O)=O)n2)cc1OC (stereo partly drawn) [Example 96]
19,126,"CC(C)C[C@H](CO)Nc1nc(CC(C)c2ccc3ncn(C)c(=O)c3c2)nc(NS(C)(=O)=O)n1 (stereo partly drawn) [Example 124, N-(4-(((R)-1-Hydroxy-4-methylpentan-2-yl)amino)-6-(2-(3-methyl-4-oxo-3,4-dihydroquinazolin-6-yl)propyl)-1,3,5-triazin-2-yl)methanesulfonamide]"
20,633,"CC(=O)N(C)c1ccc(C(C)Cc2nc(N[C@@H](CO)CC(C)C)nc(NS(C)(=O)=O)n2)cc1 (stereo partly drawn) [Example 73, N-(4-(1-(4-(((R)-1-Hydroxy-4-methylpentan-2-yl)amino)-6-(methylsulfonamido)-1,3,5-triazin-2-yl)propan-2-yl)phenyl)-N-methylacetamide]"
21,287,"CC(C)C[C@H](CO)Nc1nc(C[C@@H](C)c2cc(F)c(Cl)c(F)c2)nc(NS(C)(=O)=O)n1 (single isomer, unassigned) [Example 31, N-(4-((R*)-2-(4-Chloro-3,5-difluorophenyl)propyl)-6-(((R)-1-hydroxy-4-methylpentan-2-yl)amino)-1,3,5-triazin-2-yl)methanesulfonamide]"
22,111,"CC(C)C[C@H](CO)Nc1nc(CC(C)c2ccc(C3COC3)cc2)nc(NS(C)(=O)=O)n1 (stereo partly drawn) [Example 57, N-(4-(((R)-1-Hydroxy-4-methylpentan-2-yl)amino)-6-(2-(4-(oxetan-3-yl)phenyl)propyl)-1,3,5-triazin-2-yl)methanesulfonamide]"
23,292,"CC(=O)Nc1ccc(C(C)Cc2nc(N[C@@H](CO)CC(C)C)nc(NS(C)(=O)=O)n2)cc1 (stereo partly drawn) [Example 59, N-(4-(1-(4-(((R)-1-Hydroxy-4-methylpentan-2-yl)amino)-6-(methylsulfonamido)-1,3,5-triazin-2-yl)propan-2-yl)phenyl)acetamide]"
24,1500,"CC(C)C[C@H](CO)Nc1nc(CC(C)c2ccc(C#N)cc2)nc(NS(C)(=O)=O)n1 (single isomer, unassigned) [Example 164, N-(4-((S*)-2-(4-Cyanophenyl)propyl)-6-(((R)-1-hydroxy-4-methylpentan-2-yl)amino)-1,3,5-triazin-2-yl)methanesulfonamide]"
25,1960,"CC(C)C[C@H](CO)Nc1nc(CC(C)c2ccc(C(=O)N3CCOCC3)cc2)nc(NS(C)(=O)=O)n1 (stereo partly drawn) [Example 156, N-(4-(((R)-1-Hydroxy-4-methylpentan-2-yl)amino)-6-(2-(4-(morpholine-4-carbonyl)phenyl)propyl)-1,3,5-triazin-2-yl)methanesulfonamide]"
26,88,"CC(C)C[C@H](CO)Nc1nc(CC(C)c2ccc(C3CCOCC3)cc2)nc(NS(C)(=O)=O)n1 (stereo partly drawn) [Example 102, N-(4-(((R)-1-Hydroxy-4-methylpentan-2-yl)amino)-6-(2-(4-(tetrahydro-2H-pyran-4-yl)phenyl)propyl)-1,3,5-triazin-2-yl)methanesulfonamide]"
27,84,"CC(C)C[C@H](CO)Nc1nc(CC(C)c2cccc3c(=O)n(C)cnc23)nc(NS(C)(=O)=O)n1 (stereo partly drawn) [Example 109, N-(4-(((R)-1-Hydroxy-4-methylpentan-2-yl)amino)-6-(2-(3-methyl-4-oxo-3,4-dihydroquinazolin-8-yl)propyl)-1,3,5-triazin-2-yl)methanesulfonamide]"
28,321,"CC(C)C[C@H](CO)Nc1nc(CC(C)c2cccc(Cl)c2O)nc(NS(C)(=O)=O)n1 (stereo partly drawn) [Example 137, N-(4-(2-(3-Chloro-2-hydroxyphenyl)propyl)-6-(((R)-1-hydroxy-4-methylpentan-2-yl)amino)-1,3,5-triazin-2-yl)methanesulfonamide]"
29,384,"CC(C)C[C@H](CO)Nc1nc(C[C@H](C)c2ccc(Cl)c(F)c2F)nc(NS(C)(=O)=O)n1 (single isomer, unassigned) [Example 33, N-(4-((S*)-2-(4-Chloro-2,3-difluorophenyl)propyl)-6-(((R)-1-hydroxy-4-methylpentan-2-yl)amino)-1,3,5-triazin-2-yl)methanesulfonamide]"
30,830,"COCc1ccc(C(C)Cc2nc(N[C@@H](CO)CC(C)C)nc(NS(C)(=O)=O)n2)cc1 (stereo partly drawn) [Example 69, N-(4-(((R)-1-Hydroxy-4-methylpentan-2-yl)amino)-6-(2-(4-(methoxymethyl)phenyl)propyl)-1,3,5-triazin-2-yl)methanesulfonamide]"
